Data: ChEMBL document CHEMBL1145258, “Geometry, topology, and atom-weights assembly descriptors to predicting A1 adenosine receptors agonists” (Bioorg Med Chem Lett, 2005)

Target: T1, Adenosine receptor A1 (Rattus norvegicus, UniProt P25099)
T1 sequence (P25099 whole entry): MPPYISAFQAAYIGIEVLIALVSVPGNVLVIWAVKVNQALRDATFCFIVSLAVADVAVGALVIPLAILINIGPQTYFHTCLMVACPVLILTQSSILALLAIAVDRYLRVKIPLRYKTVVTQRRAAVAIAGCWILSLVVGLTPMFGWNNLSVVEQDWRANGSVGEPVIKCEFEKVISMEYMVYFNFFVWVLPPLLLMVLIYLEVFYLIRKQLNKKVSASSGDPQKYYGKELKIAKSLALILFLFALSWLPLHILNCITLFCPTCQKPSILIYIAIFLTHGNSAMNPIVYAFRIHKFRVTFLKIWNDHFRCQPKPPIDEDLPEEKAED
Assay: Inhibition of [3H]R-PIA binding to Adenosine A1 receptor from rat brain membrane

Ki [nM]	SMILES
725	CCNC(=O)[C@@H]1OC(n2cnc3c(NC(=O)Nc4ccc(S(=O)(=O)Nc5ncccn5)cc4)ncnc32)[C@@H](O)[C@H]1O (some centres undefined)
16	CCNC(=O)[C@H]1OC(n2cnc3c(NC(=O)c4ccc(Cl)cc4Cl)ncnc32)[C@H](O)[C@@H]1O (some centres undefined)
901	CCNC(O)[C@H]1O[C@@H](n2cnc3c(NC(=O)Nc4ccc(S(=O)(=O)Nc5cc(C)on5)cc4)ncnc32)[C@H](O)[C@@H]1O (some centres undefined)
292	CCNC(=O)[C@H]1OC(n2cnc3c(NC(=O)Nc4ccc(S(=O)(=O)Nc5ccccn5)cc4)ncnc32)[C@H](O)[C@@H]1O (some centres undefined)
